Reference: patent publication US20050143357A1 (priority 2002, published 2005)

Tests used:
[1] = system: upstream regulatory portion of the VDUP-1; assay: VDUP-1 regulatory region luciferase reporter assay in transiently transfected LNCaP cells; assay type: cell-based, human; conditions: VDUP-1 regulatory portion fused to luceferase gene, different time points, luminometer
Procedure: A human cell line, LNCaP was transiently transfected with a DNA vector composed of the upstream regulatory portion of the VDUP-1 fused to the gene encoding luceferase. The procedures to carry out transfection were essentially as described in example 2. At different time points a steroid with androgen properties, exemplified as R1881, were added to cell cultures, as was calcitriol (vitamin D). At different time points, luciferace activity in cell extracts was measured using a luminometer. The outcome of this experiment was that the level of luceferase was decreased by the steroid and was increased by vitamin D.

[2] = system: 5 α-reduotase; conditions: once it enters prostate cells, by 5 α-reduotase; cited from earlier work

SMILES	level of luceferase (luciferace activity in cell extracts) [1]	fraction converted to dihydrotestosterone (DHT) [2]
C[C@]1(O)CC[C@H]2[C@@H]3CCC4=CC(=O)CCC4=C3C=C[C@@]21C [R1881]	decreased	
C[C@]12CC[C@H]3[C@@H](CCC4=CC(=O)CC[C@@]43C)[C@@H]1CC[C@@H]2O [Testosterone]		about 90%
C=C1/C(=C\C=C2/CCC[C@]3(C)[C@@H]([C@H](C)CCCC(C)(C)O)CC[C@@H]23)C[C@@H](O)C[C@@H]1O [calcitriol]	increased	
